Assay results reported in patent publication US10815222B2, “Compounds for use in the treatment of kinetoplastid infection” (C.N.C.C.S. S.c.a.r.l. COLLEZIONE NAZIONALE DEI COMPOSTI …, priority 2016, dated 2020).
Read-outs that look alike come from different tables or passages of the source.

Test system: Bloodstream form of Trypanosoma brucei, strain Lister 427
Test: Trypanosoma brucei growth inhibition assay (CellTiter-Glo, 24 h)
Type: cell-based
Settings: read-out: T. Brucei GI EC50
Protocol: Bloodstream form of Trypanosoma brucei, strain Lister 427 (provided by Prof. Miguel Navarro, Instituto de Parasitologia y Biomedicina “Lopez-Neyra” Avda. Conocimiento S/N Parque Tecnologico Ciencias de la Salud—Spain; ref. Navarro M. and Cross G. A. M. Molecular and Cellular Biology, 1996, Vol. 16, No. 7, pp. 3615-3625) were grown in IMDM Iscove's Modified Dulbecco's Medium (SIGMA #17633) supplemented with: 3.024 g/l sodium bicarbonate, hypoxanthine 1 mM, thymidine 0.16 mM, bathocuprione sulfonic acid 0.05 mM, cysteine 1.5 mM, ß-mercaptoethanol […] and 10% foetal bovine serum (heat-inactivated at 56° C. for 30 min). Parasites were grown at 37° C. in flasks with vented caps in a 5% CO2 incubator to a maximum cell density of about 2×10^6/ml and diluted every two-three days.
The compounds of the invention were dissolved in DMSO and transferred to assay plates by acoustic droplet ejection (ATS-100, EDC Biosystems, USA) in order to obtain an appropriate concentration and to keep the concentration of DMSO below or equal to 0.25% in the final assay volume of 30 μL. 1500 parasites resuspended in 30 μL of culture medium were then transferred to each well of a 384-well plate.
After an incubation period of 24 hours at 37° C., each well is added 15 μl of CellTiter-Glo® Reagent (Promega) and incubated at room temperature. 5-10 min post incubation, the plate is read using a luminometer (ViewLux®). A known inhibitor of the growth of T. brucei was used as the reference positive control.

[1] = Trypanosoma brucei, T. Brucei Growth Inibition Assay, class symbols

| SMILES | EC50 [1] [nM] | also measured |
| --- | --- | --- |
| COc1ccc2nc(C)n(CC(=O)N3CC[C@H](N(C)Cc4cnccn4)C[C@H]3c3ncc(-c4cc5ccccc5nc4OC)[nH]3)c2c1 | 100 to 500 | – |
| CN1CCN(C(=O)Cn2cc3ccccc3n2)C(c2ncc(-c3ccc4ccccc4c3)[nH]2)C1 (centres unmarked) | 1010 to 5000 | – |
| COc1nc2ccccc2cc1-c1cnc([C@@H]2CN(CC3CCOC3)CCN2C(=O)Cn2cc(C(F)(F)F)nc2C)[nH]1 (some centres unmarked) | 1010 to 5000 | – |
| COc1nc2ccccc2cc1-c1cnc(C2CN(S(=O)(=O)N(C)C)CCN2C(=O)Cc2c(C)[nH]c3ccc(F)cc23)[nH]1 (centres unmarked) [4-(2-(5-fluoro-2-methyl-1H-indol-3-yl)acetyl)-3-(5-(2-methoxyquinolin-3-yl)-1H-imidazol-2-yl)-N,N-dimethylpiperazine-1-sulfonamide] | 1010 to 5000 | – |
| COc1ccc2nc(C(F)(F)F)n(CC(=O)N3CCN(CCc4ccnn4C)CCC3c3ncc(-c4cc5ccccc5nc4OC)[nH]3)c2c1 (centres unmarked) [2-(6-methoxy-2-(trifluoromethyl)-1H-benzo[d]imidazol-1-yl)-1-(7-(5-(2-methoxyquinolin-3-yl)-1H-imidazol-2-yl)-4-(2-(1-methyl-1H-pyrazol-5-yl)ethyl)-1,4-diazepan-1-yl)ethan-1-one] | < 100 | – |
| COc1cccc(CCC(=O)N2CCN(CC3CCOC3)CC2c2ncc(-c3cc4ccccc4nc3OC)[nH]2)c1 (centres unmarked) | 1010 to 5000 | – |
| COc1ccc2c(c1)C(CC(=O)N1CCN(C)CC1c1ncc(-c3ccc4ccccc4c3)[nH]1)C(=O)N2 (centres unmarked) | 1010 to 5000 | – |
| O=C(Cc1n[nH]c2ccccc12)N1CCN(CCc2ccccc2)CC1c1ncc(-c2ccc3ccccc3c2)[nH]1 (centres unmarked) | 1010 to 5000 | – |
| COc1ccc2nc(C(F)(F)F)n(CC(=O)N3CCN(CC4CCOC4)C[C@H]3c3nnc(-c4cc5ccccc5nc4OC)[nH]3)c2c1 (stereo partly drawn) [2-(6-methoxy-2-(trifluoromethyl)-1H-benzo[d]imidazol-1-yl)-1-((2S)-2-(5-(2-methoxyquinolin-3-yl)-4H-1,2,4-triazol-3-yl)-4-((tetrahydrofuran-3-yl)methyl)piperazin-1-yl)ethan-1-one] | < 100 | – |
| COc1ccc2nc(C(F)(F)F)n(CC(=O)N3CC[C@H](N[C@@H]4CCOC4)C[C@H]3c3ncc(-c4cc5ccccc5nc4OC)[nH]3)c2c1 [2-(6-methoxy-2-(trifluoromethyl)-1H-benzo[d]imidazol-1-yl)-1-((2S,4S)-2-(5-(2-methoxyquinolin-3-yl)-1H-imidazol-2-yl)-4-(((R)-tetrahydrofuran-3-yl)amino)piperidin-1-yl)ethan-1-one] | < 100 | – |
| COc1nc2ccccc2cc1-c1cnc(C2CN(CC3CCOC3)CCN2C(=O)Cn2c(=O)ncc3ccccc32)[nH]1 (centres unmarked) | 1010 to 5000 | – |
| COc1ccc2[nH]c(C)c(CC(=O)N3CCN(C(=O)OC(C)(C)C)CC3c3ncc(-c4cc5ccccc5nc4OC)[nH]3)c2c1 (centres unmarked) | 100 to 500 | – |
| CCC(=O)CCC(=O)N1CCN(C(=O)Cc2c(C)[nH]c3ccc(OC)cc23)C(c2ncc(-c3ccc4ccccc4c3)[nH]2)C1 (centres unmarked) | 100 to 500 | – |
| CCn1cc(CN2CCC(c3ncc(-c4cc5ccccc5nc4OC)[nH]3)N(C(=O)Cn3c(C(F)(F)F)nc4ccc(OC)cc43)CC2)cn1 (centres unmarked) | 510 to 1000 | – |
| COc1ccc2nc(C(F)(F)F)n(CC(=O)N3CC[C@H](N)C[C@H]3c3ncc(-c4cc5ccccc5nc4OC)[nH]3)c2c1 [1-((2S,4S)-4-amino-2-(5-(2-methoxyquinolin-3-yl)-1H-imidazol-2-yl)piperidin-1-yl)-2-(6-methoxy-2-(trifluoromethyl)-1H-benzo[d]imidazol-1-yl)ethan-1-one] | 1010 to 5000 | – |
| COc1nc2ccccc2cc1-c1cnc(C2CN(C(=O)c3cnn(C(C)C)c3)CCN2C(=O)Cc2c(C)[nH]c3ccc(F)cc23)[nH]1 (centres unmarked) | 1010 to 5000 | – |
| O=C(Cc1c[nH]c2ccc(O)cc12)N1CCN(CCc2ccccc2)CC1c1ncc(-c2ccc3ccccc3c2)[nH]1 (centres unmarked) | – | EC50 (T. Brucei Growth Inibition Assay, class symbols): 1010 to 5000 nM |
| COc1ccc2nc(C(F)(F)F)n(CC(=O)N3CC[C@H](NCc4ccon4)C[C@H]3c3ncc(-c4cc5ccccc5nc4OC)[nH]3)c2c1 [1-((2S,4S)-4-((isoxazol-3-ylmethyl)amino)-2-(5-(2-methoxyquinolin-3-yl)-1H-imidazol-2-yl)piperidin-1-yl)-2-(6-methoxy-2-(trifluoromethyl)-1H-benzo[d]imidazol-1-yl)ethan-1-one] | < 100 | – |
| COc1nc2ccccc2cc1-c1cnc(C2CN(CC3CCOC3)CCN2C(=O)Cn2nc(C)c3ccccc3c2=O)[nH]1 (centres unmarked) | 510 to 1000 | – |
| COc1ccc2nc(C)n(CC(=O)N3CCN(Cc4ccn(C)n4)CC[C@@H]3c3ncc(-c4cc5ccccc5nc4OC)[nH]3)c2c1 [(R)-2-(6-methoxy-2-methyl-1H-benzo[d]imidazol-1-yl)-1-(7-(5-(2-methoxyquinolin-3-yl)-1H-imidazol-2-yl)-4-((1-methyl-1H-pyrazol-3-yl)methyl)-1,4-diazepan-1-yl)ethan-1-one] | < 100 | – |
| COc1nc2ccccc2cc1-c1cnc(C2COCCN2C(=O)OCc2ccccc2)[nH]1 (centres unmarked) [benzyl 3-(5-(2-methoxyquinolin-3-yl)-1H-imidazol-2-yl)morpholine-4-carboxylate] | 1010 to 5000 | – |

| SMILES | EC50 [1] [nM] | also measured |
| --- | --- | --- |
| COc1ccc2[nH]cc(CC(=O)N3CCN(CC4CCOC4)CC3c3ncc(-c4cc5ccccc5nc4OC)[nH]3)c2c1 (centres unmarked) | 100 to 500 | – |
| COc1ccc2nc(C)n(CC(=O)N3CCCCC3c3ncc(-c4cc5ccccc5nc4OC)[nH]3)c2c1 (centres unmarked) | 100 to 500 | – |
| COc1ccc2nc(C)n(CC(=O)N3CCS(=O)(=O)CC3c3ncc(-c4cc5ccccc5nc4OC)[nH]3)c2c1 (centres unmarked) | 1010 to 5000 | – |
| COc1ccc2nc(C(F)(F)F)n(CC(=O)N3C[C@H](NC4CCOC4)CC[C@H]3c3ncc(-c4cc5ccccc5nc4OC)[nH]3)c2c1 (stereo partly drawn) [2-(6-methoxy-2-(trifluoromethyl)-1H-benzo[d]imidazol-1-yl)-1-((2S,5R)-2-(5-(2-methoxyquinolin-3-yl)-1H-imidazol-2-yl)-5-((tetrahydrofuran-3-yl)amino)piperidin-1-yl)ethan-1-one] | < 100 | – |
| COc1nc2ccccc2cc1-c1cnc(C2COCCN2C(=O)Cn2c(C)nc3ccccc32)[nH]1 (centres unmarked) | 1010 to 5000 | – |
| COc1ccc2nc(C(F)(F)F)n(CC(=O)N3CCN(C)CCC3c3ncc(-c4cc5ccccc5nc4OC)[nH]3)c2c1 (centres unmarked) | 510 to 1000 | – |
| COc1ccc2nc(C)n(CC(=O)N3CCC(O)C[C@H]3c3ncc(-c4cc5ccccc5nc4OC)[nH]3)c2c1 (some centres unmarked) | 510 to 1000 | – |
| COc1ccc2nc(C)n(CC(=O)N3CCN(CCn4cccn4)C[C@H]3c3ncc(-c4cc5ccccc5nc4OC)[nH]3)c2c1 | 100 to 500 | – |
| COc1ccc2c(c1)[C@H](CC(=O)N1CCN(C)CC1c1ncc(-c3ccc4ccccc4c3)[nH]1)C(=O)N2 (some centres unmarked) | 1010 to 5000 | – |
| COc1ccc2nc(C(F)(F)F)n(CC(=O)N3CCN(Cc4ccn(C)n4)CC[C@H]3c3ncc(-c4cc5ccccc5nc4OC)[nH]3)c2c1 [(S)-2-(6-methoxy-2-(trifluoromethyl)-1H-benzo[d]imidazol-1-yl)-1-(7-(5-(2-methoxyquinolin-3-yl)-1H-imidazol-2-yl)-4-((1-methyl-1H-pyrazol-3-yl)methyl)-1,4-diazepan-1-yl)ethan-1-one] | < 100 | – |
| COc1nc2ccccc2cc1-c1cnc(C2CN(CC3CCOC3)CCN2C(=O)c2ccnc3ccccc23)[nH]1 (centres unmarked) | 1010 to 5000 | – |
| COc1nc2ccccc2cc1-c1cnc([C@@H]2CN(CC3CCOC3)CCN2C(=O)Cn2c(C)nc3ccc(C(F)(F)F)cc32)[nH]1 (stereo partly drawn) [1-((2S)-2-(5-(2-methoxyquinolin-3-yl)-1H-imidazol-2-yl)-4-((tetrahydrofuran-3-yl)methyl)piperazin-1-yl)-2-(2-methyl-6-(trifluoromethyl)-1H-benzo[d]imidazol-1-yl)ethan-1-one] | < 100 | – |
| COc1nc2ccccc2cc1-c1cnc(C2CN(C3CCS(=O)(=O)CC3)CCN2C(=O)Cc2c(C)[nH]c3ccc(F)cc23)[nH]1 (centres unmarked) | 100 to 500 | – |
| COc1ccc2nc(C(F)(F)F)n(CC(=O)N3CCN(Cc4cnn(C)c4)CCC3c3ncc(-c4cc5ccccc5nc4OC)[nH]3)c2c1 (centres unmarked) | 100 to 500 | – |
| Cn1cc(CC(=O)N2CCN(Cc3ccccc3)CC2c2ncc(-c3ccc4ccccc4c3)[nH]2)c2ccccc21 (centres unmarked) | 1010 to 5000 | – |
| CCCCCCN1CCN(C(=O)CC2=C(C)NC3C=CC=CC23)C(c2ncc(-c3cc4ccccc4nc3O)[nH]2)C1 (centres unmarked) | 1010 to 5000 | – |
| COc1nc2ccccc2cc1-c1cnc(C2CN(CC3CCOC3)CCN2C(=O)Cc2c[nH]c3ccncc23)[nH]1 (centres unmarked) | 1010 to 5000 | – |
| COc1ccc2nc(C(F)(F)F)n(CC(=O)N3CCN(Cc4cocn4)C[C@H]3c3ncc(-c4cc5ccccc5nc4OC)[nH]3)c2c1 [(S)-2-(6-methoxy-2-(trifluoromethyl)-1H-benzo[d]imidazol-1-yl)-1-(2-(5-(2-methoxyquinolin-3-yl)-1H-imidazol-2-yl)-4-(oxazol-4-ylmethyl)piperazin-1-yl)ethan-1-one] | < 100 | – |
| CCC(=O)CCCN1CCN(C(=O)Oc2ccccc2)C(c2ncc(-c3ccc4ccccc4c3)[nH]2)C1 (centres unmarked) [phenyl 2-(5-(naphthalen-2-yl)-1H-imidazol-2-yl)-4-(4-oxohexyl)piperazine-1-carboxylate] | – | EC50 (Trypanosoma brucei): 1010 to 5000 nM |
| COc1ccc2nc(C(F)(F)F)n(CC(=O)N3CCN(Cc4cnccn4)CCC3c3ncc(-c4cc5ccccc5nc4OC)[nH]3)c2c1 (centres unmarked) [2-(6-methoxy-2-(trifluoromethyl)-1H-benzo[d]imidazol-1-yl)-1-(7-(5-(2-methoxyquinolin-3-yl)-1H-imidazol-2-yl)-4-(pyrazin-2-ylmethyl)-1,4-diazepan-1-yl)ethan-1-one] | < 100 | – |
